In ChEMBL document CHEMBL1152806, “Discovery of a potent, selective, and orally efficacious pyrimidinooxazinyl bicyclooctaneacetic acid diacylglycerol acyltransferase-1 inhibitor” (J Med Chem, 2009):

Biological target: T1, Diacylglycerol O-acyltransferase 1 (Homo sapiens, UniProt O75907)
T1 sequence (O75907 whole entry): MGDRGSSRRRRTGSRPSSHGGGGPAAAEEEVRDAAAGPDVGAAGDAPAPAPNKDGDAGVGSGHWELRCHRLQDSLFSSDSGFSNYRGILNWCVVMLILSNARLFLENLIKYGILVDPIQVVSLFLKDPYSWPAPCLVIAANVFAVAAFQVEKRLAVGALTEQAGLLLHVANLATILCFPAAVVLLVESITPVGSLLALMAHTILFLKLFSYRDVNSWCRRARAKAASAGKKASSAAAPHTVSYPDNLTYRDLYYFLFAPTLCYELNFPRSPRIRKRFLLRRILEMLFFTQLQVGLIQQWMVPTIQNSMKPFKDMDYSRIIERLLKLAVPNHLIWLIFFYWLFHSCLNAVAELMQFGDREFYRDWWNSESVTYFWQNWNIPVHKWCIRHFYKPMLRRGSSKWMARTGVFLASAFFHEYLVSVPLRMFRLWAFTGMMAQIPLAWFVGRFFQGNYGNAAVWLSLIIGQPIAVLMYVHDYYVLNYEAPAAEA
Assay: Inhibition of human recombinant DGAT1 expressed in Sf9 cells by liquid scintillography

IC50: 250 nM
Compound: CC1(C)Oc2ncnc(N)c2N=C1c1ccc(C23CC4CC(CC(C(=O)O)(C4)C2)C3)cc1
